From ChEMBL document CHEMBL1201862, “PubChem BioAssay data set” (2004)
The source made the active and inactive calls.

How the values were obtained:
[1] = molecular target: Eukaryotic translation initiation factor 4E (Mus musculus, UniProt P63073); assay: blockers of eIF4G binding by eIF4E – biochemical, TR-FRET, dose response (AID 855); assay type: functional;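 further: potency for disrupting eIF4E binding to eIF4GI seen as loss of FRET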
[2] = THP-1 cell cytotoxicity, dose response, cytotoxicity control for non-replicating M. tuberculosis project (AID 489025); assay type: functional
[3] = HepG2 cell cytotoxicity, dose response, cytotoxicity control for non-replicating M. tuberculosis project (AID 489018); assay type: functional; settings: Mycobacterium tuberculosis
Aminopeptidase N = molecular target: T1, Aminopeptidase N (Plasmodium falciparum FcB1/Columbia, UniProt O96935); assay: malaria alanyl aminopeptidase activity blockers – biochemical, fluorogenic H-Leu-NHMec substrate, 1536-well (AID 1445); design: species or system Plasmodium falciparum 3D7, 3D7
T1 sequence (O96935 whole entry): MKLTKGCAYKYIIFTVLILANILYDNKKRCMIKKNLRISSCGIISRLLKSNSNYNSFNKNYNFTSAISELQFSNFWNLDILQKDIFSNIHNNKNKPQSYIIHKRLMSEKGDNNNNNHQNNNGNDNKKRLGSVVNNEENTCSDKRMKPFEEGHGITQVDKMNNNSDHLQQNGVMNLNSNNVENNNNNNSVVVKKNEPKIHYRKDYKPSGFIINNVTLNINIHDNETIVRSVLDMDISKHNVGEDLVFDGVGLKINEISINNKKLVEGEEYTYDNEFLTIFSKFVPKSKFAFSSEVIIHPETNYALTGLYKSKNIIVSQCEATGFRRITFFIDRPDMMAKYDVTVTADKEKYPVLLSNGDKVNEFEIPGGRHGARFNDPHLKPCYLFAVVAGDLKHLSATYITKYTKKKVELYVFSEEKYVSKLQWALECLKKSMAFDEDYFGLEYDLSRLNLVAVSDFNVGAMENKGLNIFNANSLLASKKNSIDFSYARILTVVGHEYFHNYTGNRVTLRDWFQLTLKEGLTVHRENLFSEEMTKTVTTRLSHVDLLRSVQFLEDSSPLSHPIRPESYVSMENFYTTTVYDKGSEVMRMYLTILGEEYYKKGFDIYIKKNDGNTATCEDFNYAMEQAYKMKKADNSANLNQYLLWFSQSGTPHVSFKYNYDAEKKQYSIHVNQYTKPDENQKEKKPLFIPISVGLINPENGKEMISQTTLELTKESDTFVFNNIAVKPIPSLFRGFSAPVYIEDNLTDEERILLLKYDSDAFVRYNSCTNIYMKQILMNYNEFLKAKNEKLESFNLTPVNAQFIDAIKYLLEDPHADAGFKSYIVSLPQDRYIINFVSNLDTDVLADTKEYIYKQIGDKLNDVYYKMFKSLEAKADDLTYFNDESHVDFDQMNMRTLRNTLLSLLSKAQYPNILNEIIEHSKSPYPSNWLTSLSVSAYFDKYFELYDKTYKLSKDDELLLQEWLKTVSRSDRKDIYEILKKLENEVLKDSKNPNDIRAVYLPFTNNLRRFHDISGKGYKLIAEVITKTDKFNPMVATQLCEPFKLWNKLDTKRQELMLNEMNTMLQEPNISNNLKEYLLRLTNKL

Bcl-2-like protein 10 = molecular target: T2, Bcl-2-like protein 10 (Homo sapiens, UniProt Q9HD36); assay: Bcl-B/TR3 peptide binding disruption – biochemical, fluorescence polarization, FITC-TR3 peptide, selectivity assay for Bfl-1 inhibitor project, primary screen (AID 748);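 further: fluorescence polarization from a fluorescein-labelled TR3 peptide binding purified Bcl-B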
T2 sequence (Q9HD36 whole entry): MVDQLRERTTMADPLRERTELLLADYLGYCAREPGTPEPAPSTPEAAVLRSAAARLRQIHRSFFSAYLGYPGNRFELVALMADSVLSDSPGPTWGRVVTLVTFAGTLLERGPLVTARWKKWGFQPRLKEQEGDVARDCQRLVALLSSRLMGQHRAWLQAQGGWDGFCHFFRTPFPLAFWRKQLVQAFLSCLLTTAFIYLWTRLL

[4] = molecular target: G-protein coupled receptor 55 (Homo sapiens, UniProt Q9Y2T6); assay: inhibition of LPI-stimulated GPR55 beta-arrestin translocation – imaging, U2OS, beta-arrestin-GFP, LPI agonist, primary screen (AID 2013); assay type: functional;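 further: antagonist potency measured as reduced agonist-driven arrestin aggregation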
G-protein coupled receptor 55, sequence (Q9Y2T6 whole entry): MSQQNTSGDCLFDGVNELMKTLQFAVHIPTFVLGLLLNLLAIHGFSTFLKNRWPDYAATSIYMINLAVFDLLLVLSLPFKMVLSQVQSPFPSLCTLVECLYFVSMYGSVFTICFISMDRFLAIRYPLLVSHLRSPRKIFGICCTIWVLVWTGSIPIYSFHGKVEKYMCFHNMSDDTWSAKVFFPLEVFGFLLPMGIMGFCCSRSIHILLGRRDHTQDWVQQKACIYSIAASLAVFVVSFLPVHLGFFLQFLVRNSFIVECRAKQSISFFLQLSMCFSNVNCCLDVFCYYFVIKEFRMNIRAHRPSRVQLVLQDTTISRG

[5] = molecular target: DNA dC->dU-editing enzyme APOBEC-3A (Homo sapiens, UniProt P31941); assay: Dose Response confirmation of small molecule APOBEC3A DNA Deaminase Inhibitors via a fluorescence-based single-stranded DNA deaminase assay. [Related pubchem assays (depositor defined):AID493011, AID493024]; assay type: functional
DNA dC->dU-editing enzyme APOBEC-3A, sequence (P31941 whole entry): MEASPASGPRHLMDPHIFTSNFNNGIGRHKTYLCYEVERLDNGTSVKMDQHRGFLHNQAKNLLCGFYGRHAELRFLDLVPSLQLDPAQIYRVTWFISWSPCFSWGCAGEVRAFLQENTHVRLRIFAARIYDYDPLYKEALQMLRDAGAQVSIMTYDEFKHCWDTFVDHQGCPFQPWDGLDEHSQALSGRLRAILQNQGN

[6] = molecular target: DNA dC->dU-editing enzyme APOBEC-3G (Homo sapiens, UniProt Q9HC16); assay type: functional;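 further: Dose-response counterscreen measuring inhibition of APOBEC3G DNA deaminase activity, run while confirming APOBEC3A inhibitors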
DNA dC->dU-editing enzyme APOBEC-3G, sequence (Q9HC16 whole entry): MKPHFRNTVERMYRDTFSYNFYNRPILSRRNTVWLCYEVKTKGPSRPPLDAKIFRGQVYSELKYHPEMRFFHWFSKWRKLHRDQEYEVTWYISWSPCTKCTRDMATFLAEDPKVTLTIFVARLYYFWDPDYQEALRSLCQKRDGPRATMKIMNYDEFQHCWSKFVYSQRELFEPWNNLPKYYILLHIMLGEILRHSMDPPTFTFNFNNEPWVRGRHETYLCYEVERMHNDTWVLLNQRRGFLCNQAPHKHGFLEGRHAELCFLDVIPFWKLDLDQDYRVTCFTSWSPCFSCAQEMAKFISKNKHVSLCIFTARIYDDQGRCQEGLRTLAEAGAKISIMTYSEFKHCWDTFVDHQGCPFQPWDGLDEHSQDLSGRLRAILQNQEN

[7] = Luminescence Cell-Based Dose Response to Identify Activators of 5'UTR Stem-Loop Driven Prion Protein mRNA Translation in H4-C Neuroglioblastoma Cells. [Related pubchem assays: 1829 (Project Summary), 1814 (Primary HTS)]; assay type: functional
[8] = Luminescence Cell-Based Dose Response HTS to Identify Activators of Luciferase Translation or Activity in H4 […] Cells. [Related pubchem assays: 1829 (Project Summary), 1814 (Primary HTS)]; assay type: functional
[9] = Luminescence Cell-Based Dose Response to Identify Activators of Luciferase Translation or Activity in H4-C Neuroglioblastoma Cells. [Related pubchem assays: 1829 (Project Summary), 1814 (Primary HTS)]; assay type: functional
[10] = Luminescence Cell-Based Dose Confirmation to Identify Activators of 5'UTR Stem-Loop Driven Alpha-Synuclein mRNA Translation in H4 Neuroglioblastoma Cells. [Related pubchem assays: 1829 (Project Summary), 1814 (Primary HTS)]; assay type: functional
cells = assay type: functional
[11] = Luminescence Cell-Based Dose Confirmation HTS to Identify Activators of 5'UTR Stem-Loop Driven Alpha-Synuclein mRNA Translation in H4 Neuroglioblastoma Cells. [Related pubchem assays: 1829 (Project Summary), 1814 (Primary HTS)]; assay type: functional
H4 = assay: Luminescence Cell-Based Dose Response HTS to Identify Activators of 5'UTR Stem-Loop Driven Prion Protein mRNA Translation in H4 Neuroglioblastoma Cells. [Related pubchem assays: 1829 (Project Summary), 1814 (Primary HTS)]; assay type: functional; settings: Homo sapiens
[12] = molecular target: T3, Heat shock factor protein 1 (Mus musculus, UniProt P38532); assay: enhancement of HSF1-driven luciferase signal – cell-based, NIH3T3, luminescence, dose retest, confirmation (AID 435004); assay type: functional;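 further: stress induced by proteasome inhibitor MG132 added 30 min after compound; luciferase reporter driven by HSF1 response element in NIH3T3 cells; actives raise luminescence as potentiators of the MG132 stress response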
T3 sequence (P38532 whole entry): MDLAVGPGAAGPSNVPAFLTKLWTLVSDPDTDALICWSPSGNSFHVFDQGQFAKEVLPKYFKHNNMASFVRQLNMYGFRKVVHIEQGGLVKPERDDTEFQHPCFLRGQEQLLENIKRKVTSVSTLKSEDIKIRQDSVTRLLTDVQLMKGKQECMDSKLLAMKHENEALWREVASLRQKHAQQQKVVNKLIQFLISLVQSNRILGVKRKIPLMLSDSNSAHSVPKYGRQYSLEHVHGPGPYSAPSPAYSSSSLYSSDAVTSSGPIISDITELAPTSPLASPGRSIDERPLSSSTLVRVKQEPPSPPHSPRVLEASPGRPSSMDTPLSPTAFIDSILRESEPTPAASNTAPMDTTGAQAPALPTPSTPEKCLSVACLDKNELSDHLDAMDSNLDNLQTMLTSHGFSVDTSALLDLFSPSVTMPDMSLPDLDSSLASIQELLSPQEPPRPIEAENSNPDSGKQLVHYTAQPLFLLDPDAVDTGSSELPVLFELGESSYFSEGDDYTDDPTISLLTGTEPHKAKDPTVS

[13] = Luminescence-based cell-based high throughput dose response assay to identify activators of the DAF-12 from the parasite S. stercoralis (ssDAF-12).; assay type: functional
[14] = molecular target: T4, Oxysterols receptor LXR-beta (Homo sapiens, UniProt P55055); assay: LXR agonists, Gal4 luciferase reporter, dose response, counter-screen for ssDAF-12 agonist project, cell-based, luminescence, HEK293, S. stercoralis campaign (AID 720737); assay type: functional; settings: read-out: IC50 (the source's name)
T4 sequence (P55055 whole entry): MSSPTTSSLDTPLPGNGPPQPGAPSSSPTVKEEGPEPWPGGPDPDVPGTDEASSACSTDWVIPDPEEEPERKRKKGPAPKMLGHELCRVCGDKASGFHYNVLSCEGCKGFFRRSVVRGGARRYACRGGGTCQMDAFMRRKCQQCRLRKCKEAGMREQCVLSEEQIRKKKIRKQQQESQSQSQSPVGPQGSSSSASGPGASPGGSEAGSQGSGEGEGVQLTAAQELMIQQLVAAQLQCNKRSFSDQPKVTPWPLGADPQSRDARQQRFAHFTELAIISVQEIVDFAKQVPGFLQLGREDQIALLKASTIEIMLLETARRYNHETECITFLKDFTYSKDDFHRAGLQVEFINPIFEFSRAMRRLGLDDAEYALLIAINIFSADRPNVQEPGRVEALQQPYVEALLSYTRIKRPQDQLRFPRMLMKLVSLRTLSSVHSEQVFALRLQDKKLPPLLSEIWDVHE

H9c2 = assay: cells; assay type: functional, cell-based; settings: Rattus norvegicus, H9c2, Myocardium;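 further: confirmatory concentration-response retest of ultra-high-throughput screening hits for modulation of myocardial damage; cell death induced by hydrogen peroxide oxidative stress; compound pretreatment for 60 min then peroxide exposure for 2 h; potency is for protecting the cells against peroxide damage rather than for killing them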
INS1 = assay: INS-1E survival protection against cytokine death – cell-based, luminescence, retest, dose response (AID 449756); assay type: functional; settings: Rattus norvegicus;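 further: cell death triggered by IL-1 beta plus TNF-alpha plus IFN-gamma mixture; protective hits raise ATP signal compared with cytokine alone wells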
Fatty acid synthase [15] = molecular target: T5, Fatty acid synthase (Homo sapiens, UniProt P49327); assay: inhibition of human FAS-TE enzyme activity – biochemical, endpoint fluorescence intensity, uHTS hits, dose response (AID 624327); assay type: functional;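 further: fluorescence from hydrolysis of an O-methyl fluorescein acyl ester substrate by the enzyme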
T5 sequence (P49327 whole entry): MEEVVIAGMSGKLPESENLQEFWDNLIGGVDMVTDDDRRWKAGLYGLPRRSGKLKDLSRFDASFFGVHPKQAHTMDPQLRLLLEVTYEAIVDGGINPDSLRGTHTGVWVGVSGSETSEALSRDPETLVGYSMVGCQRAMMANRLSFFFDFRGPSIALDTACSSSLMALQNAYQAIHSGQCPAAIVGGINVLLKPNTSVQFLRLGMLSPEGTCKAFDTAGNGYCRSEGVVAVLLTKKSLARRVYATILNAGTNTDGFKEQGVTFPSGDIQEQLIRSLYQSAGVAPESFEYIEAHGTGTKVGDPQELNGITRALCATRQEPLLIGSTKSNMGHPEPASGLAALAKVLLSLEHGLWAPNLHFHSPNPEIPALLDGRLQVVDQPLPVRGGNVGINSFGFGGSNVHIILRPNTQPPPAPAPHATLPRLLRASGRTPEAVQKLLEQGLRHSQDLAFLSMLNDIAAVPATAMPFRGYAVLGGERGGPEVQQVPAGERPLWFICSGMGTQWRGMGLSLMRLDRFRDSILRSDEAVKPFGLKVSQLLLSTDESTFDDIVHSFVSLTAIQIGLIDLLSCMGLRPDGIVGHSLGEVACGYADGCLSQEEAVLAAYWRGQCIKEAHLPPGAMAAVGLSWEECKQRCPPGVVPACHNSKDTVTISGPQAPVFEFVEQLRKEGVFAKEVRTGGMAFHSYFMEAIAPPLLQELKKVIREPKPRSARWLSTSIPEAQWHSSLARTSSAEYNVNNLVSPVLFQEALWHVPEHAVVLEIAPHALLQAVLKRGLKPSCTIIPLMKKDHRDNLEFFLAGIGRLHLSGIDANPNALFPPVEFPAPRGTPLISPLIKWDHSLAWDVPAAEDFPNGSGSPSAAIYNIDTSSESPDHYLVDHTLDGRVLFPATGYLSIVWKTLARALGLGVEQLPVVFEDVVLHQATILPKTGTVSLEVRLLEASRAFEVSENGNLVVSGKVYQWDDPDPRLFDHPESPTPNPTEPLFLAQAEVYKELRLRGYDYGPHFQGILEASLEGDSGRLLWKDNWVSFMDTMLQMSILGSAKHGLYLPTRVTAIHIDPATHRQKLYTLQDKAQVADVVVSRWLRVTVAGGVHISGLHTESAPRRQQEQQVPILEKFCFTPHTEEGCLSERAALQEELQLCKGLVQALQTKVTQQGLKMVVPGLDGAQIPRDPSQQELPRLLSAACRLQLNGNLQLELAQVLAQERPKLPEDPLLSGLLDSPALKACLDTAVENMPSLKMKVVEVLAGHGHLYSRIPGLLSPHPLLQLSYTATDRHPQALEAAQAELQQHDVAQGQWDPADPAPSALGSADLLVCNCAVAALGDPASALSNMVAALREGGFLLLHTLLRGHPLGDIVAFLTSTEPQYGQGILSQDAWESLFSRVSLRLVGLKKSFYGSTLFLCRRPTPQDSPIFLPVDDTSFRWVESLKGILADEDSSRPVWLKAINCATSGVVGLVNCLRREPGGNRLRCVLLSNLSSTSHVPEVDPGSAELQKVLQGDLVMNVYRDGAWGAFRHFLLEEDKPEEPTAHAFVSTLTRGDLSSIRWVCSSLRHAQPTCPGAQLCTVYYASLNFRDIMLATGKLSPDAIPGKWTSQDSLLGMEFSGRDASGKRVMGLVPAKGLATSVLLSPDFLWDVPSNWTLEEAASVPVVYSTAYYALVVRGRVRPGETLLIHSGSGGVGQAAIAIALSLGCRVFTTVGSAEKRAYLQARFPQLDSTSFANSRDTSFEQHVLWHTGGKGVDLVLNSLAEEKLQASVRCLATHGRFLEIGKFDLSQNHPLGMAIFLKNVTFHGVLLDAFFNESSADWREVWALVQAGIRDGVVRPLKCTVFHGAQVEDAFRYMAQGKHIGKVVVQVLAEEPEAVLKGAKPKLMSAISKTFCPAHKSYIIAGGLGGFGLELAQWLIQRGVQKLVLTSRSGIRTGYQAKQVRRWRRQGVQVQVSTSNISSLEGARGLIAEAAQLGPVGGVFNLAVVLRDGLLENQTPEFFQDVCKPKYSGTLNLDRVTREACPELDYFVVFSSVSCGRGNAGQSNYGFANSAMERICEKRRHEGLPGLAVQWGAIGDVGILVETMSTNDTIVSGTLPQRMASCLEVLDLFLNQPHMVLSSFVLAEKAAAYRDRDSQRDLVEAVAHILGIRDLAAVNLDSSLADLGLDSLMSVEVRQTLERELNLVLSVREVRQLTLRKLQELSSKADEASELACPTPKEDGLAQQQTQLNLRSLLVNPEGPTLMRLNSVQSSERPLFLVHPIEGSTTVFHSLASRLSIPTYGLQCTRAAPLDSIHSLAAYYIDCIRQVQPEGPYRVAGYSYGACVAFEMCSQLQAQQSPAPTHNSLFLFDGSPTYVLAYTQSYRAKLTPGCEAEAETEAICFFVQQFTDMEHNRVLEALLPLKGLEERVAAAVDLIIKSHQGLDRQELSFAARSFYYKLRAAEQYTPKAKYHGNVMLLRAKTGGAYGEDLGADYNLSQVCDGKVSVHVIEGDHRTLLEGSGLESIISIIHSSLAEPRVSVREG

Fatty acid synthase [16] = molecular target: T5, Fatty acid synthase; assay: inhibition of human FAS-TE enzyme activity – biochemical, kinetic fluorescence intensity, dose response (AID 624326); assay type: functional;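 further: rate of fluorescence rise from hydrolysis of a fluorogenic O-methyl fluorescein ester substrate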
[17] = NIH-3T3 fibroblast cytotoxicity, dose response, cytotoxicity control, cell-based, fluorescence, Alamar Blue, secondary assay (AID 2327); assay type: functional;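 further: NIH-3T3 mouse fibroblasts cultured with fluconazole at 8 µg/mL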
[18] = luciferase reporter signal suppression in cells – H4 neuroglioma cells, luminescence, dose response (AID 1990); assay type: functional, cell-based
[19] = Luminescence Cell-Based Dose Response HTS to Identify Inhibitors of 5'UTR Stem-Loop Driven Prion Protein mRNA Translation in H4 Neuroglioblastoma Cells. [Related pubchem assays: 1827 (Project Summary), 1813 (Primary HTS)]; assay type: functional
[20] = alpha-synuclein stem-loop luciferase translation blockers – H4 neuroglioma cells, luminescence, confirmation (AID 1988); assay type: functional, cell-based
[21] = fluconazole-exposed Candida albicans growth modulators – fluorescence, retest, confirmation (AID 2467); assay type: functional, cell-based
[22] = HEK-293T viability loss after treatment – luminescence, T-cell screen hits, cytotoxicity control for TCR NF-kB inhibitor project, dose response (AID 489026); assay type: functional, cell-based;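 further: cells exposed to compound about 14 hours before the viability readout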

Eukaryotic translation initiation factor 4E, sequence (P63073 whole entry): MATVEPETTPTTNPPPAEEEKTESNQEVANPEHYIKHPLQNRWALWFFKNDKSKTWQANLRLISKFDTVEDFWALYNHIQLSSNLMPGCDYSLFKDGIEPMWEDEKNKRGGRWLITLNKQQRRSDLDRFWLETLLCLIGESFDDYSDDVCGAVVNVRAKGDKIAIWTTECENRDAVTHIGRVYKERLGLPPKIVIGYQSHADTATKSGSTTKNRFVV

In the case of COc1ccc(CC(=O)Nc2ccc(-c3nnc(-c4ccccc4)o3)cc2)cc1OC, the IC50 [1] is reported as > 64 µM (inactive).
With O=C(NNC1=C(C(=O)C(F)(F)F)CCC1)c1ccccc1Cl the CC50 [2] was 13.6 µM (active) and the CC50 [3] was > 20 µM (active).
For Cc1ccc(S(=O)(=O)Nc2nc3ccc(S(=O)(=O)N4CCCC4)cc3s2)cc1, the IC50 (Aminopeptidase N) was 53.5 µM (active).
In the case of Cc1cccc(OCC(=O)Nc2ccc(S(=O)(=O)N3CCCC3)cc2)c1, the IC50 (Bcl-2-like protein 10) is reported as > 100 µM (inactive).
With CCCCCn1c(C(Cc2ccccc2)NC(C)=O)nc2ccccc21 (centres undefined) the IC50 [4] was 4.08 µM (active).
For Cc1n(CC(O)COCc2ccccc2)c2ccccc2[n+]1C (centres undefined), the IC50 [5] was 2.82 µM (active) and the IC50 [6] was 5.05 µM (active).
With Cc1nc2c(C(=O)N3CCCCC3)cnn2c(C)c1Cc1ccccc1F the EC50 [7] was 0.57 µM (active), the EC50 [8] was < 0.1 µM (active) and the EC50 [9] was 0.267 µM (active). For the same compound, the EC50 [10] was > 12 µM (not active).
In the case of Clc1ccc2nc(CN3CCCc4ccccc43)cn2c1, the IC50 (Bcl-2-like protein 10) is reported as 72.5 µM (inactive).
For O=C(CN1CCC(NC(=O)c2cccc(F)c2)CC1)Nc1ccc(Br)cc1, the IC50 (cells) was 47.8 µM (active).
With CCCn1nc(NC(=O)COC)c2cc3cc(C)ccc3nc21 the EC50 [11] was 3.88 µM (active), the EC50 [8] was 12.9 µM (active) and the EC50 (H4) was > 120 µM (inconclusive). For the same compound, the IC50 [5] was 2.71 µM (active) and the IC50 [6] was 2.89 µM (active).
In the case of S=C(Nc1cccc(Cl)c1Cl)N1CCC2(CC1)OCCO2, the IC50 [1] is reported as 50 µM (inactive).
For O=C(C[n+]1cc(-c2ccc(F)cc2)n2c1CCC2)c1cccs1, the EC50 [7] was 1.06 µM (active), the EC50 [11] was < 0.1 µM (active) and the EC50 [8] was 0.136 µM (inconclusive). For the same compound, the EC50 (H4) was 29.9 µM (inconclusive), the EC50 [9] was > 12 µM (not active) and the EC50 [10] was 3.26 µM (active).
With CCC(C)Sc1nc2c3ccccc3nc-2c(O)n1C (centres undefined) the EC50 [12] was > 260 µM (inactive), the IC50 [13] was > 67.5 µM (inactive) and the EC50 [14] was > 67.5 µM (inactive).
In the case of O=C(COc1ccc(F)cc1)N/N=C/c1cccc2cccnc12, the CC50 [2] is reported as 24.8 µM (active), the IC50 (cells) is reported as 17.2 µM (active) and the IC50 (H9c2) is reported as 20.8 µM (active).
For O=C(CNC(=O)c1ccccc1)N/N=C/c1cc(Br)ccc1O, the IC50 (Aminopeptidase N) was 22.6 µM (active), the AC50 (INS1) was 3.5 µM (active) and the IC50 (Fatty acid synthase [15]) was 12.7 µM (active). For the same compound, the IC50 (Fatty acid synthase [16]) was 10.2 µM (active).
In the case of CC[n+]1cc(C)ccc1C=Cc1ccc(N(C)C)cc1, the EC50 [17] is reported as 58.6 µM (active), the EC50 [18] is reported as 11.7 µM (active) and the EC50 [19] is reported as 65.4 µM (active). For the same compound, the EC50 [20] was 10.4 µM (active), the EC50 [21] was 1.25 µM (active) and the IC50 [5] was 2.73 µM (active). The IC50 [22] was > 80 µM (inactive) and the IC50 [6] was 4.02 µM (active).
